Assay results published in patent US6235771A, “Anilide derivative, production and use thereof” (Takeda Chemical Industries, Ltd., priority 1998, dated 2001).

Target: T1, human CCR5 (Homo sapiens, UniProt P51681)
T1 construct: expressed in transfected cells; host or cells: CHO-K1 cells, electroporated with plasmid pCKR5 (pcDNA3.1 backbone), geneticin-selected (CHO/CCR5)
Test: Inhibition of [125I]-RANTES binding to human CCR5 in CHO/CCR5 cells (CCR5 antagonistic activity)
Conditions: Test Compound 1 μM, 100 pM [125I]-RANTES, room temperature, 40 minutes, read-out: Inhibition Rate (CCR5 binding)
Description: Cloning of CCR5 gene was carried out by PCR (polymerase chain reaction) from human spleen cDNA. With using 0.5 ng of spleen cDNA (Toyobo, QUICK-Clone cDNA) as template, PCR was performed in DNA Thermal Cycler 480 (Perkin-Elmer) (reaction conditions: 30 cycles of 95° C. for 1 minute, 60° C. for 1 minute, and 75° C. for 5 minutes) by adding primer set, 5'-[…]-3' (25 pmol) and 5'-[…]-3' (25 pmol), which were designed referring to nucleotide sequence of CCR5 gene reported by Samson et al. (Biochemistry, 35(11), 3362-3367 (1996)) and by using TaKaRa EX Taq (TakaraShuzo). The resultant PCR product was subjected to agarose gel. electrophoresis to collect about 1.0 kb DNA fragment, which was subjected to Original TA Cloning Kit (Funakoshi) to carry out cloning of CCR5 gene.
The plasmid obtained in the above (1) was digested with restriction enzymes XbaI (Takara Shuzo) and BamHI (Takara Shuzo) and subjected to agarose gel electrophoresis to collect about 1.0 kb DNA fragment. The DNA fragment was mixed with plasmid pcDNA3.1 (Funakoshi) for expression in animal cells, said plasmid being digested with XbaI and BamHI, and they were ligated with DNA Ligation Kit Ver.2 (Takara Shuzo). The resulting plasmid was subjected to transformation of competent cell of E. coli JM109 (Takara Shuzo) to obtain plasmid pCKR5.
CHO-K1 cells were grown in 750 ml of tissue culture flask (Becton Dickinson) using Ham's F12 medium (Nihon Pharmaceutical) containing 10% fetal calf serum (Life Tech Oriental) and took off with 0.5 g/L trypsin-0.2 g/L EDTA (Life Tech Oriental). The cells were washed with PBS (Life Tech Oriental), centrifuged (1000 rpm, 5 minutes), and suspended in PBS. With using Gene Pulser (Bio-Rad Laboratories), DNA was introduced into the cells under the conditions shown below. That is, to the cuvette of 0.4 cm gap were added 8×10^6 cells and 10 μg of plasmid pCKR5 for expression of human CCR5, and electroporation was carried out under 0.25 kV of voltage and 960 μF of capacitance. The cells were transferred into Ham's F12 medium (Nihon Pharmaceutical) containing 10% fetal calf serum, and cultivated for 24 hours. The cells were again took off and centrifuged, and suspended in Ham's F12 medium (Nihon Pharmaceutical) containing 10% fetal calf serum and 500 μg/ml of geneticin (Life Tech Oriental). The suspension was diluted to give 10^4 cells/ml of the suspension, which was inoculated on 96 well plate (Becton Dickinson) to give geneticin resistant cells. The resulting geneticin resistant cells were cultivated in 96 well plate (Becton Dickinson), and cells expressing CCR5 were selected from the geneticin resistant cells. That is, in assay buffer (Ham's F12 medium containing 0.5% BSA and 20 mM HEPES (Wako Pure Chemical, pH7.2) to which was added 200 pM of [^125 I]-RANTES (Amersham) as ligand, binding reaction was carried out at room temperature for 40 minutes, and the buffer was washed with cooled PBS. To the buffer was added 50 μl/well of 1M NaOH, and the mixture was stirred. Radioactivity was determined with γ-counter to select CHO/CCR5 cells which specifically bind to the ligand.
The CHO/CCR5 were inoculated on 96 well microplate (5×10^4 cells/well) and cultivated for 24 hours. The medium was removed by means of suction, and to each well was added assay buffer containing Test Compound (1 μM) and then 100 pM of [^125 I]-RANTES (Amersham) as ligand. Binding assay was carried out at room temperature for 40 minutes, and assay buffer was removed by means of suction. Each well was washed twice with cooled PBS, and 200 μl of Microscint-20 (Packard Instrument, Inc.) was added to each well. Radio-activity was determined with Top-Count Micro Scintillation Counter (Packard Instrument, Inc.).
According to the method described above, inhibition rate of Test Compound (whose number is referred to in the following Examples) to CCR5 binding.

T1 sequence (P51681 whole entry): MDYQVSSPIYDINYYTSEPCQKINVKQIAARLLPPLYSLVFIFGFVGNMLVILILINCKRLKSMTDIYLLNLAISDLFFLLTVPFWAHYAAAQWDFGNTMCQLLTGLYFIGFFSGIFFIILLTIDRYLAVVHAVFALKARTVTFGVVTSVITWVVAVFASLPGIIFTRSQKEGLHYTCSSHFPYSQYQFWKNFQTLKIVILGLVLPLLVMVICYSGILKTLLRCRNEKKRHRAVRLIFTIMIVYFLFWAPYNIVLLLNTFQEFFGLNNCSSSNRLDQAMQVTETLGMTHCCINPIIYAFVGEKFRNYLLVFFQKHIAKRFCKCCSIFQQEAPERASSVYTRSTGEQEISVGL

| SMILES | inhibition at 1 µM |
| --- | --- |
| CCCCOc1ccc(-c2ccc3c(c2)C=C(C(=O)Nc2ccc(CN(C)C4CCOCC4)cc2)CCS3(=O)=O)cc1 [Compound 30, 7-(4-butoxyphenyl)-N-[4-[N-methyl-N-(tetrahydropyran-4-yl)aminomethyl]phenyl]-1,1-dioxo-2,3-dihydro-1-benzothiepine-4-carboxamide] | 99% |
| CCOCCCc1ccc(-c2ccc3c(c2)C=C(C(=O)Nc2ccc(CN(C)C4CCOCC4)cc2)CCS3(=O)=O)cc1 [Compound 123, 7-[4-(3-ethoxypropyl)phenyl]-N-[4-[[N-methyl-N-(tetrahydro-2H-pyran-4-yl)amino]methyl]phenyl]-1,1-dioxo-2,3-dihydro-1-benzothiepine-4-carboxamide] | 94% |
| CCOCCOc1ccc(-c2ccc3c(c2)C=C(C(=O)Nc2ccc(CN(C)C4CCOCC4)cc2)CCS3(=O)=O)cc1C [Compound 129, 7-[4-(2-ethoxyethoxy)-3-methyl-phenyl]-N-[4-[[N-methyl-N-(tetrahydropyran-4-yl)amino]methyl]phenyl]-1,1-dioxo-2,3-dihydro-1-benzothiepine-4-carboxamide] | 95% |
| CCCCOCCOc1ccc(-c2ccc3c(c2)C=C(C(=O)Nc2ccc(CN(C)C4CCOCC4)cc2)CCS3(=O)=O)cc1 [Compound 98, 7-[4-(2-butoxyethoxy)phenyl]-N-[4-[[N-methyl-N-(tetrahydropyran-4-yl)amino]methyl]phenyl]-1,1-dioxo-2,3-dihydro-1-benzothiepine-4-carboxamide] | 98% |
| CCCOCCOc1ccc(-c2ccc3c(c2)C=C(C(=O)Nc2ccc(CN(C)C4CCOCC4)cc2)CCS3(=O)=O)cc1OCC [Compound 73, 7-[3-ethoxy-4-(2-propoxyethoxy)phenyl]-N-[4-[[N-methyl-N-(tetrahydropyran-4-yl)amino]methyl]phenyl]-1,1-dioxo-2,3-dihydro-1-benzothiepine-4-carboxamide] | 94% |
| CCCc1ccc(-c2ccc3c(c2)C=C(C(=O)Nc2ccc(CN(C)C4CCOCC4)cc2)CCS3(=O)=O)cc1 [Compound 27, N-[4-[N-methyl-N-(tetrahydropyran-4-yl)aminomethyl]phenyl]-7-(4-propylphenyl)-1,1-dioxo-2,3-dihydro-1-benzothiepine-4-carboxamide] | 100% |
| CCOCCOc1c(C)cc(-c2ccc3c(c2)C=C(C(=O)Nc2ccc(CN(C)C4CCOCC4)cc2)CCS3(=O)=O)cc1C [Compound 124, 7-[4-(2-ethoxyethoxy)-3,5-dimethylphenyl]-N-[4-[[N-methyl-N-(tetrahydro-2H-pyran-4-yl)amino]methyl]phenyl]-1,1-dioxo-2,3-dihydro-1-benzothiepine-4-carboxamide] | 97% |
| CCN(CC)c1ccc(-c2ccc3c(c2)C=C(C(=O)Nc2ccc(CN(C)C4CCOCC4)cc2)CCS3(=O)=O)cc1 [Compound 54, 7-(4-diethylaminophenyl)-N-[4-[[N-methyl-N-(tetrahydropyran-4-yl)amino]methyl]phenyl]-1,1-dioxo-2,3-dihydro-1-benzothiepine-4-carboxamide] | 99% |
| CCSc1ccc(-c2ccc3c(c2)C=C(C(=O)Nc2ccc(CN(C)C4CCOCC4)cc2)CCS3(=O)=O)cc1 [Compound 44, 7-[(4-ethylthio)phenyl]-N-[4-[N-methyl-N-(tetrahydropyran-4-yl)aminomethyl]phenyl]-1,1-dioxo-2,3-dihydro-1-benzothiepine-4-carboxamide] | 96% |
| CCCOc1ccc(-c2ccc3c(c2)C=C(C(=O)Nc2ccc(CN(C)C4CCOCC4)cc2)CCS3(=O)=O)cc1OCC [Compound 125, 7-(3-ethoxy-4-propoxyphenyl)-N-[4-[[N-methyl-N-(tetrahydro-2H-pyran-4-yl)amino]methyl]phenyl]-1,1-dioxo-2,3-dihydro-1-benzothiepine-4-carboxamide] | 92% |

Results, then the compound that gave them:

| inhibition at 1 µM | SMILES |
| --- | --- |
| 91% | CCOc1ccc(-c2ccc3c(c2)C=C(C(=O)Nc2ccc(CN(C)C4CCOCC4)cc2)CCS3(=O)=O)cc1 [Compound 4, 7-(4-ethoxyphenyl)-N-[4-[N-methyl-N-(tetrahydropyran-4-yl)aminomethyl]phenyl]-1,1-dioxo-2,3-dihydro-1-benzothiepine-4-carboxamide] |
| 95% | CC(C)OCCOc1ccc(-c2ccc3c(c2)C=C(C(=O)Nc2ccc(CN(C)C4CCOCC4)cc2)CCS3(=O)=O)cc1 [Compound 111, 7-[4-(2-isopropoxyethoxy)phenyl]-N-[4-[[N-methyl-N-(tetrahydropyran-4-yl)amino]methyl]phenyl]-1,1-dioxo-2,3-dihydro-1-benzothiepine-4-carboxamide] |
| 95% | CCCOCCOc1ccc(-c2ccc3c(c2)C=C(C(=O)Nc2ccc(CN(C)C4CCOCC4)cc2)CCS3(=O)=O)cc1C [Compound 75, 7-[3-methyl-4-(2-propoxyethoxy)phenyl]-N-[4-[[N-methyl-N-(tetrahydropyran-4-yl)amino]methyl]phenyl]-1,1-dioxo-2,3-dihydro-1-benzothiepine-4-carboxamide] |
| 92% | CCCOCCOc1ccc(-c2ccc3c(c2)C=C(C(=O)Nc2ccc(CN(C)C4CCOCC4)cc2)CCS3(=O)=O)cc1 [Compound 97, N-[4-[[N-methyl-N-(tetrahydropyran-4-yl)amino]methyl]phenyl]-7-[4-(2-propoxyethoxy)phenyl]-1,1-dioxo-2,3-dihydro-1-benzothiepine-4-carboxamide] |
| 94% | CCCOCCOc1ccc(-c2ccc3c(c2)C=C(C(=O)Nc2ccc(CN(C)C4CCOCC4)cc2)CCS3(=O)=O)cc1Cl [Compound 74, 7-[3-chloro-4-(2-propoxyethoxy)phenyl]-N-[4-[[N-methyl-N-(tetrahydropyran-4-yl)amino]methyl]phenyl]-1,1-dioxo-2,3-dihydro-1-benzothiepine-4-carboxamide] |
| 97% | CCOCCOc1ccc(-c2ccc3c(c2)C=C(C(=O)Nc2ccc(CN(C)C4CCOCC4)cc2)CCS3(=O)=O)cc1 [Compound 84, 7-[4-(2-ethoxyethoxy)phenyl]-N-[4-[[N-methyl-N-(tetrahydropyran-4-yl)amino]methyl]phenyl]-1,1-dioxo-2,3-dihydro-1-benzothiepine-4-carboxamide] |

System: HIV-1 BA-L
Test: Inhibitory effect on HIV-1 infection to MAGI-CCR5 cell (β-galactosidase activity)
Format: cell-based
Conditions: 100 μl of medium containing 1.6 μM Test Compound plus 100 μl of medium containing 300PFU HIV-1 BA-L; MAGI-CCR5 cells; 37° C., 2 days
Description: The plasmid where β-galactosidase gene was ligated downstream of HIV-1 LTR was introduced into CD4 positive HeLa cell, to which human CCR5 was further introduced to obtain transformant MAGI-CCR5. By using said transformant MAGI-CCR5, degree of HIV-1 infection was calculated from β-galactosidase activity (blue color due to decomposition of 5-bromo-4-chloro-3-indolyl-β-D-galactopyranoside). Specifically, MAGI-CCR5 cells were suspended in DMEM medium containing 10% serum to prepare 5×10^4 cells/ml suspension. To each well of 96 well plate was inoculated 200 μl of the suspension, and the cells were cultivated at 37° C. overnight. The medium was removed by means of suction, and to the residue was added 100 μl of the above medium containing 1.6 μM of Test Compound and 100 μl of the above medium containing 300PFU of HIV-1 BA-L cells. The cells were cultivated at 37° C. for 2 days. The medium was removed by means of suction. To the residue was added 200 μl of cell fixative (PBS containing 1% formaldehyde and 0.2% glutaraldehyde), and the mixture was allowed to stand at room temperature for 5 minutes and washed twice with PBS. To the mixture was added 100 μl of staining solution (PBS containing […] and 0.4 mg/ml X-gal), and the mixture was allowed to stand at 37° C. for 50 minutes and washed twice with PBS. The number of blue cells was counted by microscope and defined as the number of cells infected with HIV-1. According to this method, inhibition rate on HIV-1 infection was determined.

| SMILES | Inhibition Rate (HIV-1 infection) |
| --- | --- |
| CCCCOc1ccc(-c2ccc3c(c2)C=C(C(=O)Nc2ccc(CN(C)C4CCOCC4)cc2)CCS3(=O)=O)cc1 [Compound 30, 7-(4-butoxyphenyl)-N-[4-[N-methyl-N-(tetrahydropyran-4-yl)aminomethyl]phenyl]-1,1-dioxo-2,3-dihydro-1-benzothiepine-4-carboxamide] | 91% |
| CCCCOCCOc1ccc(-c2ccc3c(c2)C=C(C(=O)Nc2ccc(CN(C)C4CCOCC4)cc2)CCS3(=O)=O)cc1 [Compound 98, 7-[4-(2-butoxyethoxy)phenyl]-N-[4-[[N-methyl-N-(tetrahydropyran-4-yl)amino]methyl]phenyl]-1,1-dioxo-2,3-dihydro-1-benzothiepine-4-carboxamide] | 91% |
| CCCOCCOc1ccc(-c2ccc3c(c2)C=C(C(=O)Nc2ccc(CN(C)C4CCOCC4)cc2)CCS3(=O)=O)cc1 [Compound 97, N-[4-[[N-methyl-N-(tetrahydropyran-4-yl)amino]methyl]phenyl]-7-[4-(2-propoxyethoxy)phenyl]-1,1-dioxo-2,3-dihydro-1-benzothiepine-4-carboxamide] | 87% |
